Experimental data as given in paper PMC4300529 (Anesthesiology, 2015).

What was measured:
Xenopus tadpoles = assay: Xenopus tadpole anesthetic activity; type: in vivo, Xenopus laevis
mice [1] = assay: Loss-of-righting reflex anesthetic potency assay in mice; type: in vivo, mice (C57BL/6J)
mice [2] = details: previously reported; cited from earlier work
apoferritin = apoferritin (Equus caballus, UniProt P02791); assay: biochemical
[3] = pharmacokinetic profiling; type: in vivo; details: data not shown

Sequence of apoferritin (P02791 2-175 limits assumed): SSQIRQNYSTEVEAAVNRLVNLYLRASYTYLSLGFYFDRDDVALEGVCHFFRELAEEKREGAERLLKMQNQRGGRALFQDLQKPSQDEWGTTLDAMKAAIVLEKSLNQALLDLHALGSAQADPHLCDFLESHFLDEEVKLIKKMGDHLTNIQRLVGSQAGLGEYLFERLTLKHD

CC(C)c1cccc(C(C)C)c1O [propofol, reference compound]
toxicity in tadpoles at 100 μM (Xenopus tadpoles; 100 μM): produced death at 100 μM
duration of LoRR (mice [1]; 20 mg/kg (0.11 mmol/kg)): 445 ± 27
logED50 in mice (mice [2]): −1.03 mmol/kg
IC50 (apoferritin): 23 µM

Cc1ccc(-c2ccc(=O)n(CC(=O)NCCc3ccccc3)n2)cc1 [compound 5]
anesthetic activity / potency in tadpoles (immobility), in words (Xenopus tadpoles; tadpole immobility after 60 minutes exposure, SAR statements to figs 4-6): optimal anesthetic activity
mean duration of LoRR (mice [1]; 100 mg/kg iv): 245 ± 65 s
onset of LoRR (mice [1]; intravenous, doses roughly twice that of propofol (moles per kilogram)): < 20 s
LogED50 for LoRR (mice [1]; iv injection, unit printed only with the propofol value of the same legend): −0.761 mmol/kg
pharmacokinetic profile (uptake, distribution, elimination) [3]: did not show any remarkable patterns of uptake, distribution, or elimination
